ChEMBL document CHEMBL5257018, “Novel Strategies for the Treatment of Pseudomonas aeruginosa Infections” (J Med Chem, 2016)
Converted amounts (≈) assume the structure as drawn. One block for each compound: values may come before it. Bridge positions count the residues as written; N and C are the ends. Square brackets hold non-standard residues; d marks the D form. Peptide text beside a SMILES is read from it. * marks the point of attachment. X1 = CC[C@@H](C)CCCCC(=O)*; Dab = NCC[C@H](N)C(=O)O

How the values were obtained:
[1] = target: T1, Acyl-homoserine lactone acylase PvdQ (Pseudomonas aeruginosa (strain LESB58), UniProt Q9I194); assay: Inhibition of Pseudomonas aeruginosa ATCC 15692 pvdQ measured after 5 mins
T1 sequence (Q9I194 whole entry): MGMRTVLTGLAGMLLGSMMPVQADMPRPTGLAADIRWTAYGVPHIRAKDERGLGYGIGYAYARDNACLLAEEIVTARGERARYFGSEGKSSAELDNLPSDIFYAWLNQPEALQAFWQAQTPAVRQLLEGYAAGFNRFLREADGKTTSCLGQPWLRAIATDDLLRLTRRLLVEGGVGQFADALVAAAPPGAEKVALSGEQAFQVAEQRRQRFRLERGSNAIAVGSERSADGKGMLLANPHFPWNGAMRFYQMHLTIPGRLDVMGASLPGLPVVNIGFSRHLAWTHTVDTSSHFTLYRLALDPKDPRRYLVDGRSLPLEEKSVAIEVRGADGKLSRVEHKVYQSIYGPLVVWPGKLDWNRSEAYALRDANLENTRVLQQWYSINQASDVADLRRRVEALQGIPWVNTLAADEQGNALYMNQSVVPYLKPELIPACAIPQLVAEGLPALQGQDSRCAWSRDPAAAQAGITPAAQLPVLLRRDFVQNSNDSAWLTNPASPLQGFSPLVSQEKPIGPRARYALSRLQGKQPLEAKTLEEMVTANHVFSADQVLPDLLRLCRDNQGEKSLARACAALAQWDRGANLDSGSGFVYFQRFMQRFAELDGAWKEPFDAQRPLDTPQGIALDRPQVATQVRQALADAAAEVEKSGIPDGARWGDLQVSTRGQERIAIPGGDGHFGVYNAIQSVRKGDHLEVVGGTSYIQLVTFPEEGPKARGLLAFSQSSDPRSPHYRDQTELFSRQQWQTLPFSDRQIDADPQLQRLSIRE

[2] = target: T1, Acyl-homoserine lactone acylase PvdQ; assay: Inhibition of wild type Pseudomonas aeruginosa PAO1 pvdQ
[3] = target: T1, Acyl-homoserine lactone acylase PvdQ; assay: Competitive inhibition of Pseudomonas aeruginosa ATCC 15692 pvdQ
[4] = target: T2, PA-I galactophilic lectin (Pseudomonas aeruginosa (strain ATCC 15692 / PAO1 / 1C / PRS 101 / LMG12228)) (UniProt Q05097); assay: (§1) Binding affinity to Pseudomonas aeruginosa PAO1 LecA assessed as dissociation constant
T2 sequence (whole entry): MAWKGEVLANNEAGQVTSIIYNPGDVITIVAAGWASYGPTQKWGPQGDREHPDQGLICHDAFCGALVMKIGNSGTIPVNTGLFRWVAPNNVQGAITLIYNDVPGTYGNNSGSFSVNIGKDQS

Pseudomonas aeruginosa [5] = assay: Antimicrobial activity against Pseudomonas aeruginosa assessed as reduction in bacterial growth; assay type: functional, organism-based
Pseudomonas aeruginosa [6] = assay: Antibacterial activity against Pseudomonas aeruginosa PAO1 assessed as reduction in bacterial growth; assay type: functional
[7] = target: T1, Acyl-homoserine lactone acylase PvdQ; assay: Inhibition of Pseudomonas aeruginosa ATCC 15692 pvdQ
[8] = target: T1, Acyl-homoserine lactone acylase PvdQ; assay: Inhibition of Pseudomonas aeruginosa ATCC 15692 pvdQ incubated for 4 hrs
[9] = target: T3, Transcriptional activator protein LasR (Pseudomonas aeruginosa (strain ATCC 15692 / PAO1 / 1C / PRS 101 / LMG12228)) (UniProt P25084); assay: Inhibition of Pseudomonas aeruginosa PAO1 LasR at 200 uM relative to control
T3 sequence (whole entry): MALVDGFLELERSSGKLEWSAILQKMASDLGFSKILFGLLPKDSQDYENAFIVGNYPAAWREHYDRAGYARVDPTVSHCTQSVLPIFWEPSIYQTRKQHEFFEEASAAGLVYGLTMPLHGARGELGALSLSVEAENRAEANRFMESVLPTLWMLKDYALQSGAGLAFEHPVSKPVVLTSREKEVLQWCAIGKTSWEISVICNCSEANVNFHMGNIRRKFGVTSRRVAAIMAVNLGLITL

Pseudomonas aeruginosa [10] = assay: Antagonist activity at Pseudomonas aeruginosa MvfR at 15 uM relative to control; set-up: scale not given: the % may be the effect or the level left; settings: filed as antagonist
[11] = target: Elastase (Pseudomonas aeruginosa (strain ATCC 15692 / PAO1 / 1C / PRS 101 / LMG12228)) (UniProt P14756); assay: Inhibition of Pseudomonas aeruginosa PAO1 elastase at 200 uM relative to control
Pseudomonas aeruginosa [12] = assay: Inhibition of Pseudomonas aeruginosa PAO1 Pyocyanin at 200 uM relative to control
[13] = Inhibition of elastase (unknown origin); set-up: species or system Homo sapiens
Homo sapiens = species on record: Homo sapiens; assay: Inhibition of elastase (unknown origin) at 10 uM relative to control
Pseudomonas aeruginosa [14] = assay: Antimicrobial activity against polymyxin resistant Pseudomonas aeruginosa assessed as reduction in bacterial growth; assay type: functional
Pseudomonas aeruginosa [15] = assay: Antimicrobial activity against Pseudomonas aeruginosa infected in mouse pneumonia model administered twice a day measured after 48 hrs; assay type: functional
[16] = target: T4, PA-I galactophilic lectin (Pseudomonas aeruginosa (strain ATCC 15692 / PAO1 / 1C / PRS 101 / LMG12228), UniProt Q05097); assay: as §1
T4 sequence (Q05097 whole entry): T2 sequence (whole entry)

[17] = Half life in mouse; assay type: ADME, organism-based; settings: in vivo
Pseudomonas aeruginosa [18] = assay: Inhibition of Pseudomonas aeruginosa PAO1 Pyocyanin at 100 uM relative to control
Pseudomonas aeruginosa [19] = assay: Antibacterial activity against Pseudomonas aeruginosa PAO1 infected in Caenorhabditis elegans worms assessed as worms survival rate at 880 uM measured after 72 hrs; assay type: functional
Pseudomonas aeruginosa [20] = assay: Inhibition of Pseudomonas aeruginosa PAO1 Pyocyanin at 440 uM relative to control
[21] = target: T3, Transcriptional activator protein LasR (Pseudomonas aeruginosa (strain ATCC 15692 / PAO1 / 1C / PRS 101 / LMG12228)); assay: Inhibition of Pseudomonas aeruginosa PAO1 LasR at 440 uM relative to control
[22] = target: Elastase (Pseudomonas aeruginosa (strain ATCC 15692 / PAO1 / 1C / PRS 101 / LMG12228)) (UniProt P14756); assay: Inhibition of Pseudomonas aeruginosa PAO1 elastase at 250 uM relative to control
Pseudomonas aeruginosa [23] = assay: Inhibition of Pseudomonas aeruginosa PAO1 Rhamnolipid at 250 uM by spectrophotometrical analysis relative to control
Pseudomonas aeruginosa [24] = assay: Inhibition of Pseudomonas aeruginosa PAO1 Pyocyanin at 250 uM relative to control
Pseudomonas aeruginosa [25] = assay: Inhibition of biofilm formation in Pseudomonas aeruginosa PAO1 assessed as reduction in biofilm formation at 250 uM measured for 2 hrs by scanning confocal laser microscopic analysis; assay type: functional

Chain of Elastase (Pseudomonas aeruginosa (strain ATCC 15692 / PAO1 / 1C / PRS 101 / LMG12228)) (P14756 198-498 limits assumed): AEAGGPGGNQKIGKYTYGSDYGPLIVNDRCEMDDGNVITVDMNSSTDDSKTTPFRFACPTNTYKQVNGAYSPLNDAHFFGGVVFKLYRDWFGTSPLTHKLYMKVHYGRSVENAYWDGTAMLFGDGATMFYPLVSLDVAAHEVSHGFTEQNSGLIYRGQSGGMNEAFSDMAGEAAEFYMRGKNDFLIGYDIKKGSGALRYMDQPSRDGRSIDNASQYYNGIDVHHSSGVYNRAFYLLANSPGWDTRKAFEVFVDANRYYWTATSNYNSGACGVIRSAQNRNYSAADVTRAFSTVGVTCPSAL

Structure (SMILES): N#CC(c1ccc(F)cc1)c1cccc(C(F)(F)F)n1 (stereo not drawn)
IC50 [1]: 1.9 µM
IC50 [2]: 19 µM
Ki [3]: 0.00019 µM

Structure (SMILES): OC[C@H]1O[C@@H](OCc2cn([C@H]3[C@H](O)[C@@H](O)[C@H](c4cn([C@H]5[C@H](O)[C@@H](O)[C@H](n6cc([C@@H]7O[C@H](CO)[C@@H](n8cc(CO[C@@H]9O[C@H](CO)[C@H](O)[C@H](O)[C@H]9O)nn8)[C@H](O)[C@H]7O)nn6)O[C@@H]5CO)nn4)O[C@@H]3CO)nn2)[C@H](O)[C@@H](O)[C@H]1O
K [4]: 28 nM

Structure (SMILES): CC(=O)Oc1cccc(C(=O)NCCCC(CCCNC(=O)c2cccc(OC(C)=O)c2OC(C)=O)(CCCNC(=O)c2cccc(OC(C)=O)c2OC(C)=O)NC(=O)CCC(=O)N[C@@H](C(=O)N[C@@H]2C(=O)N3[C@@H]2SC(C)(C)[C@@H]3C(=O)O)c2ccc(O)cc2)c1OC(C)=O
MIC (Pseudomonas aeruginosa [5]): 0.39 µM (≈ 0.511 µg/mL)
MIC (Pseudomonas aeruginosa [6]): > 200 µM

Structure (SMILES): C=CCNc1ncnc2ccc(Br)cc12
IC50 [7]: 130 µM
IC50 [8]: < 0.02 µM

Structure (SMILES): O=C(CCCc1c[nH]c2ccccc12)N[C@H]1CCOC1=O
inhibition [9]: 66%

Structure (SMILES): COc1cc(/C=C2\S/C(=N\c3ccccc3)N(c3ccccc3)C2=O)cc(OC)c1O
IC50 [13]: 380 µM

Structure (SMILES): O=c1onc2n1-c1cc(Br)ccc1OC2
IC50 [7]: 65 µM
IC50 [8]: < 0.02 µM

Structure (SMILES): CC[C@@H](C)CCCCC(=O)N[C@@H](CCN)C(=O)N[C@H](C(=O)N[C@@H](CCN)C(=O)N[C@H]1CCNC(=O)[C@H]([C@@H](C)O)NC(=O)[C@H](CCN)NC(=O)[C@H](CCN)NC(=O)[C@H](CC(C)C)NC(=O)[C@@H](Cc2ccccc2)NC(=O)[C@H](CCN)NC1=O)[C@@H](C)O (X1-[Dab]T[Dab][Dab][Dab][dF]L[Dab][Dab]T; lactam 4-C)
MIC (Pseudomonas aeruginosa [14]): < 2 µg/mL

Structure (SMILES): COc1ccc(-c2ccn(CC[C@](C)(C(=O)NO)S(C)(=O)=O)c(=O)c2)c(F)c1
ED50 (Pseudomonas aeruginosa [15]): < 25 mg/kg

Structure (SMILES): CO[C@H]1O[C@H](CNS(=O)(=O)c2c(C)cc(C)cc2C)[C@@H](O)[C@H](O)[C@@H]1O
Kd [16]: 3.3 µM
half-life [17]: 5 min

Structure (SMILES): O=C1CNC(=O)CN1 [DIKETOPIPERAZINE]
Activity (Pseudomonas aeruginosa [19]): 66%
inhibition (Pseudomonas aeruginosa [20]): 85%
inhibition [21]: 48%

Further lines, with some results ahead:

Activity (Pseudomonas aeruginosa [10]): 44%
Structure (SMILES): CCCCCCCc1cc(=O)c2cc([N+](=O)[O-])ccc2[nH]1

inhibition [11]: 63%
inhibition (Pseudomonas aeruginosa [12]): 93%
Structure (SMILES): CCCCCCCCCC(=O)CC(=O)Nc1cccc(OC)c1

inhibition (Homo sapiens): 50%
Structure (SMILES): CCCCCCCCCC(=O)CC(=O)Nc1ccccc1O

inhibition (Pseudomonas aeruginosa [18]): 90%
Structure (SMILES): CCCCCCCCCNC(=O)CC(=O)c1ccccc1

inhibition [22]: 77%
inhibition (Pseudomonas aeruginosa [23]): 87%
inhibition (Pseudomonas aeruginosa [24]): 64%
Structure (SMILES): CCCCCCCCCC(=O)NC1CCCC1 [N-CYCLOPENTYLDECANAMIDE]
inhibition at 250 µM (Pseudomonas aeruginosa [25]): 100%
